The source made the active and inactive calls. The rule behind the calls is not given here.
Columns and labels:
[1] = target: T1, von Hippel-Lindau disease tumor suppressor/Androgen receptor (Homo sapiens, UniProt P10275+P40337); assay: PROTAC activity at AR/VHL in PSMA knockdown human LNCaP cells assessed as induction of androgen receptor degradation at 1 uM measured for 24 hrs by Western blot analysis; format: cell-based
Target sequence in this assay (P10275 whole entry, looked up): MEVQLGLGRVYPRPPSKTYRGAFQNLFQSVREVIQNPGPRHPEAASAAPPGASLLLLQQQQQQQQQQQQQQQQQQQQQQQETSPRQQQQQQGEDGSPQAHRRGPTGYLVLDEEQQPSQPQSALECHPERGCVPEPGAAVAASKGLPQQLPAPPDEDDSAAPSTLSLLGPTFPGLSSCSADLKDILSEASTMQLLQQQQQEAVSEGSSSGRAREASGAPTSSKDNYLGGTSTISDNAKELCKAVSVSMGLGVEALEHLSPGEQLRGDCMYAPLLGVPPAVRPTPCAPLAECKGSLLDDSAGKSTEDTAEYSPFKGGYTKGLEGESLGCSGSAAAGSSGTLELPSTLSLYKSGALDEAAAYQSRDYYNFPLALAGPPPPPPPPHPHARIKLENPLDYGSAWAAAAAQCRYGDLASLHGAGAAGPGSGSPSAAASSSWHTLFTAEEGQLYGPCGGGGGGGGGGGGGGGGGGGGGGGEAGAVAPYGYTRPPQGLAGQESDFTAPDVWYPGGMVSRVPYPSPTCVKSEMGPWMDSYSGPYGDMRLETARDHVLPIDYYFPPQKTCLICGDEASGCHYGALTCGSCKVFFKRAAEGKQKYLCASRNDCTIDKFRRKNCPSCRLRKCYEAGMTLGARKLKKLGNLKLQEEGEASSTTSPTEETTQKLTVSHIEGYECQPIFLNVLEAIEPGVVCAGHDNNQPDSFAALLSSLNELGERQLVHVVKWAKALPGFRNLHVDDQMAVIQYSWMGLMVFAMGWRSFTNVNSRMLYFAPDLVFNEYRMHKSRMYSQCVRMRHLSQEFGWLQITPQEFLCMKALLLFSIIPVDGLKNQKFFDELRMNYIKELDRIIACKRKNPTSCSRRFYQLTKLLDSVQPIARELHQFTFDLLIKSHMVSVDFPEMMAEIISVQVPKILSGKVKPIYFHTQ
Target sequence in this assay (P40337 whole entry, looked up): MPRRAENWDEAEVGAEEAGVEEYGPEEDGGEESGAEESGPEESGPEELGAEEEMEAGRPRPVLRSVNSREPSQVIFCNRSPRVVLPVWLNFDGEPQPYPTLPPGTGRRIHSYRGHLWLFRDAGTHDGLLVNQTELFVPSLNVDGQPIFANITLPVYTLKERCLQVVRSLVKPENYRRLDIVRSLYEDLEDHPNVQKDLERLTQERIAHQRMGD

[2] = target: T1, von Hippel-Lindau disease tumor suppressor/Androgen receptor; assay: PROTAC activity at AR/VHL in human VCaP cells assessed as induction of androgen receptor degradation measured for 12 hrs by Western blot analysis; format: cell-based
[3] = target: T1, von Hippel-Lindau disease tumor suppressor/Androgen receptor; assay: PROTAC activity at AR/VHL in human LNCaP cells assessed as induction of androgen receptor degradation at 1 uM measured for 6 hrs in presence of MLN4924 by Western blot analysis; format: cell-based
Target sequence in this assay (P10275 whole entry, looked up): as the sequence (P10275 whole entry, looked up) above
Target sequence in this assay (P40337 whole entry, looked up): as the sequence (P40337 whole entry, looked up) above

[4] = target: T1, von Hippel-Lindau disease tumor suppressor/Androgen receptor; assay: PROTAC activity at AR/VHL in human 22Rv1 cells assessed as induction of androgen receptor degradation at 1 uM measured for 6 hrs in presence of PSMA ligand by Western blot analysis; format: cell-based
Target sequence in this assay (P10275 whole entry, looked up): as the sequence (P10275 whole entry, looked up) above
Target sequence in this assay (P40337 whole entry, looked up): as the sequence (P40337 whole entry, looked up) above

[5] = target: T1, von Hippel-Lindau disease tumor suppressor/Androgen receptor; assay: PROTAC activity at AR/VHL in human LNCaP cells assessed as induction of androgen receptor degradation measured for 12 hrs by Western blot analysis; format: cell-based
[6] = target: T1, von Hippel-Lindau disease tumor suppressor/Androgen receptor; assay: PROTAC activity at AR/VHL in human 22Rv1 cells assessed as induction of androgen receptor degradation measured for 12 hrs by Western blot analysis; format: cell-based
[7] = target: T1, von Hippel-Lindau disease tumor suppressor/Androgen receptor; assay: PROTAC activity at AR/VHL in human MDA-MB-231 cells assessed as effect on AR level measured for 12 hrs by Western blot analysis; format: cell-based
Target sequence in this assay (P10275 whole entry): as the sequence (P10275 whole entry, looked up) above
Target sequence in this assay (P40337 whole entry): as the sequence (P40337 whole entry, looked up) above

[8] = target: T1, von Hippel-Lindau disease tumor suppressor/Androgen receptor; assay: PROTAC activity at AR/VHL in human 22Rv1 cells assessed as induction of androgen receptor degradation at 1 uM measured for 6 hrs in presence of MG132 by Western blot analysis; format: cell-based
Target sequence in this assay (P10275 whole entry, looked up): as the sequence (P10275 whole entry, looked up) above
Target sequence in this assay (P40337 whole entry, looked up): as the sequence (P40337 whole entry, looked up) above

[9] = target: T1, von Hippel-Lindau disease tumor suppressor/Androgen receptor; assay: PROTAC activity at AR/VHL in human MCF7 cells assessed as effect on AR level at 0.03 to 10 uM measured for 12 hrs by Western blot analysis; format: cell-based; conditions: dose 0.03-10 µM
Target sequence in this assay (P10275 whole entry, looked up): as the sequence (P10275 whole entry, looked up) above
Target sequence in this assay (P40337 whole entry, looked up): as the sequence (P40337 whole entry, looked up) above

[10] = target: T1, von Hippel-Lindau disease tumor suppressor/Androgen receptor; assay: PROTAC activity at AR/VHL in human HEK293T cells assessed as effect on AR level at 0.03 to 10 uM measured for 12 hrs by Western blot analysis; format: cell-based; conditions: dose 0.03-10 µM
Target sequence in this assay (P10275 whole entry, looked up): as the sequence (P10275 whole entry, looked up) above
Target sequence in this assay (P40337 whole entry, looked up): as the sequence (P40337 whole entry, looked up) above

[11] = Stability of the compound in PBS buffer measured up to 24 hrs by HPLC analysis; format: physicochemical; conditions: read-out: Stability
[12] = target: T1, von Hippel-Lindau disease tumor suppressor/Androgen receptor; assay: PROTAC activity at AR/VHL in human LNCaP cells assessed as induction of androgen receptor degradation at 1 uM measured for 6 hrs in presence of MG132 by Western blot analysis; format: cell-based
[13] = target: T1, von Hippel-Lindau disease tumor suppressor/Androgen receptor; assay: PROTAC activity at AR/VHL in human 22Rv1 cells assessed as induction of androgen receptor degradation at 1 uM measured for 6 hrs in presence of VH032 by Western blot analysis; format: cell-based
[14] = target: T1, von Hippel-Lindau disease tumor suppressor/Androgen receptor; assay: In vivo PROTAC activity at AR/VHL in BALB/c mouse xenografted with human LNCaP cells assessed as reduction in AR level in tumor at 1 mmol/L, iv measured for 3 days by Western blot analysis; format: functional, organism-based; conditions: time 3.0 day
[15] = target: T1, von Hippel-Lindau disease tumor suppressor/Androgen receptor; assay: PROTAC activity at AR/VHL in human HEK293T cells assessed as effect on AR level measured for 12 hrs by Western blot analysis; format: cell-based
Target sequence in this assay (P10275 whole entry): as the sequence (P10275 whole entry, looked up) above
Target sequence in this assay (P40337 whole entry): as the sequence (P40337 whole entry, looked up) above

[16] = target: T1, von Hippel-Lindau disease tumor suppressor/Androgen receptor; assay: PROTAC activity at AR/VHL in human LNCaP cells assessed as induction of androgen receptor degradation at 0.03 to 3 uM measured for 12 hrs by Western blot analysis; format: cell-based; conditions: dose 0.03-3 µM
[17] = target: T1, von Hippel-Lindau disease tumor suppressor/Androgen receptor; assay: PROTAC activity at AR/VHL in human LNCaP cells assessed as induction of androgen receptor degradation at 1 uM measured for 6 hrs in presence of PSMA ligand by Western blot analysis; format: cell-based
[18] = target: T1, von Hippel-Lindau disease tumor suppressor/Androgen receptor; assay: PROTAC activity at AR/VHL in human 22Rv1 cells assessed as induction of androgen receptor degradation at 1 uM measured for 6 hrs in presence of MLN4924 by Western blot analysis; format: cell-based
[19] = target: T1, von Hippel-Lindau disease tumor suppressor/Androgen receptor; assay: PROTAC activity at AR/VHL in human MCF7 cells assessed as effect on AR level measured for 12 hrs by Western blot analysis; format: cell-based
Target sequence in this assay (P10275 whole entry): as the sequence (P10275 whole entry, looked up) above
Target sequence in this assay (P40337 whole entry): as the sequence (P40337 whole entry, looked up) above

[20] = target: T1, von Hippel-Lindau disease tumor suppressor/Androgen receptor; assay: PROTAC activity at AR/VHL in human 22Rv1 cells assessed as induction of androgen receptor degradation at 0.03 to 3 uM measured for 12 hrs by Western blot analysis; format: cell-based; conditions: dose 0.03-3 µM
[21] = target: T1, von Hippel-Lindau disease tumor suppressor/Androgen receptor; assay: PROTAC activity at AR/VHL in human MDA-MB-231 cells assessed as effect on AR level at 0.03 to 10 uM measured for 12 hrs by Western blot analysis; format: cell-based; conditions: dose 0.03-10 µM
LNCaP [22] = assay: Downregulation of FKB51 expression in human LNCaP cells measured up to 5 uM incubated for 12 hrs by RT-qPCR analysis; format: functional, cell-based
LNCaP [23] = assay: Downregulation of TMPRSS2 expression in human LNCaP cells measured up to 5 uM incubated for 12 hrs by RT-qPCR analysis; format: functional, cell-based
LNCaP [24] = assay: Downregulation of PSA expression in human LNCaP cells measured up to 5 uM incubated for 12 hrs by RT-qPCR analysis; format: functional, cell-based
[25] = Drug accumulation in male BALB/c mouse tumor implanted with human 22Rv1 cells at 0.3 mmol/L, iv measured at 1 to 24 hrs by LC-MS/MS analysis; format: ADME, organism-based, Neoplasm, CWR22R; conditions: in vivo, time 1-24 hrs
[26] = target: T1, von Hippel-Lindau disease tumor suppressor/Androgen receptor; assay: PROTAC activity at AR/VHL in human VCaP cells assessed as induction of androgen receptor degradation at 0.03 to 3 uM measured for 12 hrs by Western blot analysis; format: cell-based; conditions: dose 0.03-3 µM
[27] = target: T1, von Hippel-Lindau disease tumor suppressor/Androgen receptor; assay: PROTAC activity at AR/VHL in human LNCaP cells assessed as induction of androgen receptor degradation at 1 uM measured for 6 hrs in presence of VH032 by Western blot analysis; format: cell-based

Activity [1]: Active
DC50 [2]: 21.9 nM
Activity ([2]; dose 0.03-10 µM): Dose-dependent-effect
Activity [3]: Active
Activity [4]: Active
DC50 [5]: 44.4 nM
Activity ([5]; dose 0.03-10 µM): Dose-dependent-effect
DC50 [6]: 50.2 nM
Activity ([6]; dose 0.03-10 µM): Dose-dependent-effect
DC50 [7]: > 5 µM
Activity [8]: Active
Activity [9]: Active
Activity [10]: Active
remaining at 24 h [11]: > 90%
Activity [12]: Active
Activity [13]: Active
Activity [14]: Active
DC50 [15]: > 5 µM
Activity [16]: Active
Activity [17]: Active
Activity [18]: Active
DC50 [19]: > 5 µM
Activity [20]: Active
Activity [21]: Active
Drug uptake [25]: Active
Activity [26]: Active
Activity [27]: Active
SMILES: Cc1ncsc1-c1ccc(CNC(=O)[C@@H]2C[C@@H](OC(=O)CCOCCOCCOCCC(=O)NCCCC[C@H](NC(=O)N[C@@H](CCC(=O)O)C(=O)O)C(=O)O)CN2C(=O)[C@@H](NC(=O)CCCCCCCCCNC(=O)c2ccc(C(=O)N[C@H]3C(C)(C)[C@H](Oc4ccc(C#N)c(Cl)c4)C3(C)C)cc2)C(C)(C)C)cc1
Activity (LNCaP [22]): Active
Activity (LNCaP [23]): Active
Activity (LNCaP [24]): Active

Source: ChEMBL document CHEMBL6177983, “PSMA-Guided PROTAC Degraders for Tumor-Specific Protein Degradation in Prostate Cancer” (J Med Chem, 2025)
